Data on five molecules can be found in patent US5698670A, “Aureobasidins” (priority 1993, dated 1997).

≈ marks a conversion by molar mass, not a printed value. Like-named read-outs stand apart in the source and are kept apart here. Numbered stars: 1 amine (or outer) side, 2 acyl side, 3 side chain; on linkers, the order of the positions; unused ones are H or OH. Square brackets hold non-standard residues; d marks the D form. Peptide text beside a SMILES is read from it. * marks the point of attachment. X1 = CC[C@@H](C)[C@@H](O[*:1])C(=O)[*:2]; NMeVal(β-OH) = CN[C@H](C(=O)O)C(C)(C)O; NMeF = CN[C@@H](Cc1ccccc1)C(=O)O; aIle = CC[C@@H](C)[C@H](N)C(=O)O; Cyclohexylmethyl = C1CCC(C*)CC1; Cha = N[C@@H](CC1CCCCC1)C(=O)O; dNMeV = CN[C@@H](C(=O)O)C(C)C; NMeV = CN[C@H](C(=O)O)C(C)C; dNMeS = CN[C@H](CO)C(=O)O; dNMeA = CN[C@H](C)C(=O)O

Data set [1] deals with Cryptococcus neoformans TIMM0354. It is filed as cell-based. Particulars: for activity for Cryptococcus compared with Aureobasidin A: in words. How it is done: (§1) MIC was measured by agarose plate dilution method (cultivated at 30° C. for 2 days) using saburo-dextrose agarose culture (glucose 2 W/V %, polipeptone 1 W/V %, agarose 1.5 W/V %). Control was Aureobasidin A (AbA).

The subject of data set [2] is Aspergillus fumigatus TIMM2766. It is filed as cell-based. On the procedure:
as §1

For data set [3] the following is noted: amide bond, 27-membered ring, PyBroP/DIEA, CH2Cl2.
The subject of data set [4] is Candida albicans TIMM0171. As to the kind of experiment: MIC by agarose plate dilution method. It is filed as cell-based. Particulars: saburo-dextrose agarose culture, 30° C., 2 days. On the procedure: as §1
The test system of data set [5] is Candida albicans TIMM0136. In words: MIC by agarose plate dilution method. Particulars: saburo-dextrose agarose culture, 30° C., 2 days. It is filed as cell-based. How it is done:
as §1

Data set [6] has as its system Candida glabrata TIMM1062. In words: MIC by agarose plate dilution method. It is filed as cell-based. Particulars: saburo-dextrose agarose culture, 30° C., 2 days. How it is done: as §1
Another data set has as its system Candida kefyr TIMM0301. As to the kind of experiment: MIC by agarose plate dilution method. It is filed as cell-based. The note with it: saburo-dextrose agarose culture, 30° C., 2 days. On the procedure:
as §1

Where [7] appears, read: Cryptococcus neoformans TIMM0354, saburo-dextrose agarose culture, 30° C., 2 days.
The mark [8] stands for this setting: Aspergillus fumigatus TIMM2766, saburo-dextrose agarose culture, 30° C., 2 days.

`CC[C@@H](C)[C@@H]1NC(=O)[C@@H]2CCCN2C(=O)[C@@H](C)N(C)C(=O)[C@H](Cc2ccc(OCC3CCCCC3)cc2)NC(=O)[C@H](C(C)C)N(C)C(=O)[C@@H]([C@H](C)CC)OC(=O)[C@H](C(C)(C)O)N(C)C(=O)[C@H](CC(C)C)NC(=O)[C@H](C(C)C)N(C)C1=O` [Compound 12, cyclo(L -aIle-L -MeVal-L -Leu-L -βHOMeVal-D -Hmp-L -MeVal-L -Tyr(c-C6 H11 --CH2 --)-D -MeAla-L -Pro)] (cyclo([aIle][NMeV]L[NMeVal(β-OH)][X1][NMeV]Y(Cyclohexylmethyl)[dNMeA]P)): the MIC in data set [1] (setting [7]) was 0.20 µg/mL (≈ 0.176 µM); in data set [1] (TIMM0354) it was 0.10 to 0.39 µg/mL; in data set [2] (setting [8]) it was 1.56 µg/mL (≈ 1.37 µM); in data set [2] (TIMM2766), 1.56 to 25 µg/mL; in data set [4], 0.39 µg/mL (≈ 0.343 µM); in data set [5], 0.10 µg/mL (≈ 0.0879 µM). Besides, the MIC was 0.39 µg/mL (≈ 0.343 µM) in data set [6] and 1.56 µg/mL (≈ 1.37 µM) against Candida kefyr TIMM0301. Moreover, the “activity for Cryptococcus compared with Aureobasidin A” value in data set [1] is recorded as “stronger activity than Aureobasidin A”. This molecule showed a ring closure, isolated yield in data set [3] (from H-aIle-MeVal-Leu-βHOMeVal-dHmp-MeVal-Tyr(c-C6H11-CH2)-dMeAla-Pro-OH, 1.0 mM) of 52.3%.

`CC[C@@H](C)[C@@H]1NC(=O)[C@@H]2CCCN2C(=O)[C@@H](C)N(C)C(=O)[C@H](CC2CCCCC2)NC(=O)[C@H](C(C)C)N(C)C(=O)[C@@H]([C@H](C)CC)OC(=O)[C@H](C(C)(C)O)N(C)C(=O)[C@H](CC(C)C)NC(=O)[C@H](C(C)C)N(C)C1=O` [Compound 3, cyclo(L -aIle-L -MeVal-L -Leu-L -βHOMeVal-D -Hmp-L -MeVal-L -Cha-D -MeAla-L -Pro)] (cyclo([aIle][NMeV]L[NMeVal(β-OH)][X1][NMeV][Cha][dNMeA]P)): the MIC was 0.10 µg/mL (≈ 0.097 µM) in data set [1] (setting [7]); 0.10 to 0.39 µg/mL in data set [1] (TIMM0354); 3.12 µg/mL (≈ 3.03 µM) in data set [2] (setting [8]); 1.56 to 25 µg/mL in data set [2] (TIMM2766); 0.025 µg/mL (≈ 0.0242 µM) in data set [4]; 0.0125 µg/mL (≈ 0.0121 µM) in data set [5]. The minimum inhibitory concentration (MIC) in data set [6] was 0.10 µg/mL (≈ 0.097 µM); in the data set with Candida kefyr TIMM0301, 0.20 µg/mL (≈ 0.194 µM). Also, the “activity for Cryptococcus compared with Aureobasidin A” value in data set [1] was “stronger activity than Aureobasidin A”. This molecule had a ring closure, isolated yield in data set [3] (from H-aIle-MeVal-Leu-βHOMeVal-dHmp-MeVal-Cha-dMeAla-Pro-OH, 1.0 mM, 25.0 °C) of 28.6%.

On to `CC[C@@H](C)[C@@H]1NC(=O)[C@@H]2CCCN2C(=O)[C@@H](CO)N(C)C(=O)[C@H](CC2CCCCC2)NC(=O)[C@H](C(C)C)N(C)C(=O)[C@@H]([C@H](C)CC)OC(=O)[C@H](C(C)(C)O)N(C)C(=O)[C@H](CC(C)C)NC(=O)[C@H](C(C)C)N(C)C1=O` [Compound 9, cyclo(L -aIle-L -MeVal-L -Leu-L -βHOMeVal-D -Hmp-L -MeVal-L -Cha-D -MeSer-L -Pro)] (cyclo([aIle][NMeV]L[NMeVal(β-OH)][X1][NMeV][Cha][dNMeS]P)), for which the MIC is 0.20 µg/mL (≈ 0.191 µM) in data set [1] (setting [7]); 0.10 to 0.39 µg/mL in data set [1] (TIMM0354); over 25 µg/mL in data set [2] (setting [8]); 0.20 µg/mL (≈ 0.191 µM) in data set [4]; 0.20 µg/mL (≈ 0.191 µM) in data set [5]; 0.78 µg/mL (≈ 0.745 µM) in data set [6]. The molecule also returned an MIC in the data set with Candida kefyr TIMM0301 of 0.78 µg/mL (≈ 0.745 µM).

Take `CC[C@@H](C)[C@@H]1NC(=O)[C@@H]2CCCN2C(=O)[C@@H](C(C)C)N(C)C(=O)[C@H](CC2CCCCC2)NC(=O)[C@H](C(C)C)N(C)C(=O)[C@@H]([C@H](C)CC)OC(=O)[C@H](C(C)(C)O)N(C)C(=O)[C@H](CC(C)C)NC(=O)[C@H](C(C)C)N(C)C1=O` [Compound 8, cyclo(L -aIle-L -MeVal-L -Leu-L -βHOMeVal-D -Hmp-L -MeVal-L -Cha-D -MeVal-L -Pro)] (cyclo([aIle][NMeV]L[NMeVal(β-OH)][X1][NMeV][Cha][dNMeV]P)): the MIC in data set [1] (setting [7]) is 0.39 µg/mL (≈ 0.368 µM); in data set [1] (TIMM0354) it was 0.10 to 0.39 µg/mL; in data set [2] (setting [8]) it was over 25 µg/mL; in data set [4], 0.05 µg/mL (≈ 0.0472 µM); in data set [5] it was 0.10 µg/mL (≈ 0.0944 µM); in data set [6] it was 0.78 µg/mL (≈ 0.736 µM). The MIC in the data set on Candida kefyr TIMM0301 is 0.78 µg/mL (≈ 0.736 µM). Also, in data set [3] (from H-aIle-MeVal-Leu-βHOMeVal-dHmp-MeVal-Cha-dMeVal-Pro-OH, 1.0 mM), the ring closure, isolated yield turned out to be 20.5%.

Take `CC[C@@H](C)[C@@H]1NC(=O)[C@@H]2CCCN2C(=O)[C@H](Cc2ccccc2)N(C)C(=O)[C@H](CC2CCCCC2)NC(=O)[C@H](C(C)C)N(C)C(=O)[C@@H]([C@H](C)CC)OC(=O)[C@H](C(C)(C)O)N(C)C(=O)[C@H](CC(C)C)NC(=O)[C@H](C(C)C)N(C)C1=O` [Compound 6, cyclo(L -aIle-L -MeVal-L -Leu-L -βHOMeVal-D -Hmp-L -MeVal-L -Cha-L -MePhe-L -Pro)] (cyclo([aIle][NMeV]L[NMeVal(β-OH)][X1][NMeV][Cha][NMeF]P)): the MIC is 0.20 µg/mL (≈ 0.181 µM) in data set [1] (setting [7]); 0.10 to 0.39 µg/mL in data set [1] (TIMM0354); over 25 µg/mL in data set [2] (setting [8]); 0.20 µg/mL (≈ 0.181 µM) in data set [4]; 0.39 µg/mL (≈ 0.352 µM) in data set [5]; 1.56 µg/mL (≈ 1.41 µM) in data set [6]. In addition, in the data set with Candida kefyr TIMM0301, the MIC came out at 1.56 µg/mL (≈ 1.41 µM). This molecule gave a ring closure, isolated yield in data set [3] (from H-aIle-MeVal-Leu-βHOMeVal-dHmp-MeVal-Cha-MePhe-Pro-OH?, 1.01 mM, 25.0 °C) of 23.9%.

By MIC is commonly meant the least concentration at which growth counts as inhibited. A lower MIC goes with inhibition by little substance.
